# Patent US20070265270A1, “Cinnoline derivatives as phosphodiesterase 10 inhibitors” (priority 2006, published 2007)
# Molecular target: T1, mPDE10A7 (Mus musculus, UniProt Q8CA95)
# T1 sequence (Q8CA95 446-763 limits assumed): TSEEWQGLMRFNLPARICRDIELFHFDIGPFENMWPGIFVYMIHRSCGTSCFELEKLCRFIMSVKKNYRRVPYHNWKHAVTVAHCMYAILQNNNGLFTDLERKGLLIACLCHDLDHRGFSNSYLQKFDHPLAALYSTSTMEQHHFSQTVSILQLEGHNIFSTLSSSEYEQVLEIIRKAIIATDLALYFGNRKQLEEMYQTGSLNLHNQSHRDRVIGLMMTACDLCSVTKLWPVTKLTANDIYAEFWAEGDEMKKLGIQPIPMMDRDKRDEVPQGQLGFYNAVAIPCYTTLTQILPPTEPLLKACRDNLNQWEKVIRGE
# Assay: mPDE10A7 enzyme inhibition (IMAP fluorescence polarization)
# Format: biochemical
# Conditions: fluorescein labeled cAMP or cGMP substrate
# Procedure: Enzyme Activity: To analyze the enzyme activity, 5 μL of serial diluted mPDE10A7 containing lysate were incubated with equal volumes of diluted (100-fold) fluorescein labeled cAMP or cGMP for 30 minutes in MDC HE 96-well assay plates at room temperature. Both the enzyme and the substrates were diluted in the following assay buffer: Tris/HCl (pH 8.0) 50 mM, MgCl2 5 mM, 2-mercaptoethanol 4 mM, BSA 0.33 mg/mL. After incubation, the reaction was stopped by adding 20 μL of diluted (400-fold) binding reagents and was incubated for an hour at room temperature. The plates were counted in an Analyst GT (Molecular Devices) for fluorescence polarization. An IMAP Assay kit (Molecular Device) was used to assess enzyme properties of mPDE10A7. Data were analyzed with SoftMax Pro.
# Enzyme Inhibition: To check the inhibition profile, 10 μL of serial diluted compounds were incubated with 30 μl of diluted PDE enzymes in a 96-well polystyrene assay plate for 30 minutes at room temperature. After incubation, 5 μL of the compound-enzyme mixture were aliquoted into a MDC HE black plate, mixed with 5 μl of 100-fold diluted fluorescein labeled substrates (cAMP or cGMP), and incubated for 30 minutes at room temperature. The reaction was stopped by adding 20 μL of diluted binding reagents and counted in an Analyst GT for fluorescence polarization. The data were analyzed with SoftMax Pro.
SMILES,IC50 (Table 3),IC50 (Table 4)
"COc1cc2nncc(N3CCC(c4ccccc4)C3)c2cc1OC (racemic) [Cpd 12, 6,7-dimethoxy-4-(3-phenylpyrrolidin-1-yl)cinnoline]",0.261 µM,
"COc1cc2nncc(N3CCCC(C(=O)N4CCCC4)C3)c2cc1OC (racemic) [Cpd 32, 6,7-Dimethoxy-4-[3-(pyrrolidin-1-ylcarbonyl)piperidin-1-yl]cinnoline]",0.402 µM,
COc1cc2nncc(N3CCCC(Oc4ccccc4)C3)c2cc1OC (racemic) [Cpd 37],0.113 µM,
COc1cc2nncc(N3CCOC(c4ccc5c(c4)CCO5)C3)c2cc1OC (racemic) [Cpd 38],0.00649 µM,
COc1cc2nncc(N3CCCC(C(=O)N4CCCCC4)C3)c2cc1OC (racemic) [Cpd 39],0.378 µM,
COc1cc2nncc(N3CC(c4ccc(Cl)cc4)OCC3=O)c2cc1OC (racemic) [Cpd 40],0.427 µM,
"COc1cccc(C2CN(c3cnnc4cc(OC)c(OC)cc34)C(=O)CO2)c1 (racemic) [Cpd 52, 4-(6,7-dimethoxycinnolin-4-yl)-6-(3-methoxyphenyl)morpholin-3-one]",0.31 µM,
"COc1cc2nncc(N3CCCC(CN4CCCC4=O)C3)c2cc1OC (racemic) [Cpd 62, 1-{[1-(6,7-dimethoxycinnolin-4-yl)piperidin-3-yl]methyl}pyrrolidin-2-one]",0.337 µM,
COc1cc2nncc(N3CCOC(c4ccc(OC(F)(F)F)cc4)C3)c2cc1OC (racemic) [Cpd 63],0.0292 µM,
COc1ccc(C2CN(c3cnnc4cc(OC)c(OC)cc34)CC(=O)N2C)cc1 (racemic) [Cpd 65],0.0461 µM,
COc1cc2nncc(N3CCOC(c4ccc(O)cc4)C3)c2cc1OC (racemic) [Cpd 74],0.00384 µM,
"COc1cc2nncc(-c3nc4ccccc4o3)c2cc1OC [Cpd 1, 4-(1,3-benzoxazol-2-yl)-6,7-dimethoxycinnoline hydroformate]",0.218 µM,
"COc1cc2nncc(-n3nc(C(=O)NC4CC4)c4ccccc43)c2cc1OC [Cpd 3, N-cyclopropyl-1-(6,7-dimethoxycinnolin-4-yl)-1H-indazole-3-carboxamide hydroformate]",0.141 µM,
"COc1cc2nncc(-c3ccc4c(c3)OCCN4C)c2cc1OC [Cpd 8, 7-(6,7-dimethoxycinnolin-4-yl)-4-methyl-3,4-dihydro-2H-1,4-benzoxazine]",0.023 µM,
"COCCOc1ccc2cnn(-c3cnnc4cc(OC)c(OC)cc34)c2c1 [Cpd 19, 6,7-Dimethoxy-4-[6-(2-methoxyethoxy)-1H-indazol-1-yl]cinnoline]",0.14 µM,
"COc1cc2nncc(-n3ncc4ccc(N5CCOCC5)cc43)c2cc1OC [Cpd 21, 6,7-dimethoxy-4-(6-morpholin-4-yl-1H-indazol-1-yl)cinnoline]",0.554 µM,
CCN1CCN(c2cccc3c2cnn3-c2cnnc3cc(OC)c(OC)cc23)CC1 [Cpd 48],0.0288 µM,
"COc1cc2nncc(-n3ncc4c(N5CCN(CC6CC6)CC5)cccc43)c2cc1OC [Cpd 50, 4-{4-[4-(cyclopropylmethyl)piperazin-1-yl]-1H-indazol-1-yl}-6,7-dimethoxycinnoline]",0.0631 µM,
COc1cc2nncc(N3CCCC(n4ccccc4=O)C3)c2cc1OC (stereo not shown) [Cpd 51],0.152 µM,
COc1cc2nncc(N3CCCC(c4nc(C)no4)C3)c2cc1OC (stereo not shown) [Cpd 56],0.19 µM,
COc1ccc(C2(O)CCCN(c3cnnc4cc(OC)c(OC)cc34)C2)cc1 (stereo not shown) [Cpd 64],0.0192 µM,
COc1cc2nncc(N3CCC[C@@H](c4ccccc4F)C3)c2cc1OC [Cpd 67],0.00701 µM,
CCN(C)c1cccc2c1cnn2-c1cnnc2cc(OC)c(OC)cc12 [Cpd 72],0.044 µM,
"COc1cc2nncc(-n3ncc4c(N5CCCC5)cccc43)c2cc1OC [Cpd 73, 6,7-dimethoxy-4-(4-pyrrolidin-1-yl-1H-indazol-1-yl)cinnoline]",0.0961 µM,
COc1cc2nncc(-c3ccc4c(c3)N(C)C(=O)C4(C)C)c2cc1OC [Cpd 76],0.0187 µM,

# Further lines, results first:
IC50 (Table 3),IC50 (Table 4),SMILES
0.00133 µM,,COc1ccc2cc(C3CN(c4cnnc5cc(OC)c(OC)cc45)CCN3)ccc2c1 (racemic) [Cpd 86]
0.0578 µM,,COc1cc2nncc(N3CCOC(c4ccc(C)cc4F)C3)c2cc1OC (racemic) [Cpd 88]
0.00784 µM,,COc1cc2nncc(N3CCNC(c4cccs4)C3)c2cc1OC (racemic) [Cpd 93]
0.0016 µM,,COc1cc2nncc(N3CCNC(c4ccc(N(C)C)cc4)C3)c2cc1OC (racemic) [Cpd 94]
0.0141 µM,,COc1cc2nncc(N3CCOC(c4ccccc4C)C3)c2cc1OC (racemic) [Cpd 96]
0.0266 µM,,COc1ccc(CC2CCN(c3cnnc4cc(OC)c(OC)cc34)C2)cc1 (racemic) [Cpd 98]
0.00357 µM,,CC[C@@H]1CN(c2cnnc3cc(OC)c(OC)cc23)C[C@@H](c2ccc(OC)cc2)O1 (racemic) [Cpd 100]
0.0351 µM,,COc1cc2nncc(N3CCCC(NC(=O)c4ccccc4F)C3)c2cc1OC (racemic) [Cpd 102]
0.012 µM,,COc1cc2nncc(N3CCNC(c4cccc5ccccc45)C3)c2cc1OC (racemic) [Cpd 103]
0.263 µM,,COc1cc2nncc(N3CCCC(C4CCCCC4)C3)c2cc1OC (racemic) [Cpd 104]
0.16 µM,,COc1cc2nncc(N3CCNC(c4cc(OCc5ccccc5)cc(OCc5ccccc5)c4)C3)c2cc1OC (racemic) [Cpd 118]
0.0163 µM,,COc1cc(OC)cc(C(=O)NC2CCCN(c3cnnc4cc(OC)c(OC)cc34)C2)c1 (racemic) [Cpd 121]
,0.145 µM,COc1ccc(C2CN(c3cnnc4cc(O)c(OC)cc34)CCO2)cc1 (racemic) [compound 127]
1.39 µM,,"COc1ccc(CNC2CCN(c3cnnc4cc(OC)c(OC)cc34)CC2)cc1 [Cpd 78, 1-(6,7-dimethoxycinnolin-4-yl)-N-(4-methoxybenzyl)piperidin-4-amine]"
0.286 µM,,COc1cc2nncc(N3CCC(N4CCCC4=O)CC3)c2cc1OC [Cpd 85]
0.00651 µM,,COc1ccc(N2CCC=C(c3cnnc4cc(OC)c(OC)cc34)C2)cc1 [Cpd 101]
0.016 µM,,COc1cc2nncc(-n3ncc4c(N5CCN(C(C)=O)CC5)cccc43)c2cc1OC [Cpd 106]
0.0584 µM,,COc1cc2nncc(N3CCCC(N(C)C(=O)c4ccccc4)C3)c2cc1OC (stereo not shown) [Cpd 107]
0.00286 µM,,COc1cc2nncc(N3CCO[C@@H](c4ccc(C)cc4F)C3)c2cc1OC [Cpd 110]
0.0103 µM,,COc1ccc2cc([C@@H]3CN(c4cnnc5cc(OC)c(OC)cc45)CCN3)ccc2c1 [Cpd 111]
0.152 µM,,"COc1cc2nncc(-n3ncc4c(Br)cccc43)c2cc1OC [Cpd 113, 4-(4-bromo-1H-indazol-1-yl)-6,7-dimethoxycinnoline]"
